“And” between values parts separate entries of the source, which are not always exact repeats. Equal entries are not always repeated. Where two headings read alike, the source gives them in different places.
System: AsPC-1 cells
Experiment: Cell proliferation assay, chemodrug + ATR inhibitor (Incucyte confluence, 72 h);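 further: underlying read-out for every value is AsPC-1 confluence after 72 h incubation at 37 °C and 5% CO2, divided by that well's starting confluence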
Settings: for Curve slope / Curve bottom / Curve top: fitted dose-response curve; for Curve bottom / Curve top: relative response; for AsPC-1 viability (ratio) / AsPC-1 viability mean (ratio) / Raw data (confluence at 72 h/confluence at 0 h): Gartisertib experiment; for EC50: Homo sapiens; for Ratio: Response / Response vehicle (mean)
[1] = AsPC1, Experiment ATRi (ATR inhibitor alone)
[2] = AsPC1, Experiment GEM+ATRi_dose1
[3] = AsPC1, Experiment GEM+ATRi_dose2
[4] = AsPC1, Experiment GEM+ATRi_dose3
[5] = replicate R1, titrated drug dose 3 nM
[6] = replicate R1, titrated drug dose 10 nM
[7] = replicate R1, titrated drug dose 30 nM
[8] = replicate R1, titrated drug dose 100 nM
[9] = replicate R1, titrated drug dose 300 nM
[10] = replicate R1, titrated drug dose 1000 nM
[11] = replicate R1, titrated drug dose 3000 nM
[12] = replicate R1, titrated drug dose 10000 nM
[13] = replicate R2, titrated drug dose 3 nM
[14] = replicate R2, titrated drug dose 10 nM
[15] = replicate R2, titrated drug dose 30 nM
[16] = replicate R2, titrated drug dose 100 nM
[17] = replicate R2, titrated drug dose 300 nM
[18] = replicate R2, titrated drug dose 1000 nM
[19] = replicate R2, titrated drug dose 3000 nM
[20] = replicate R2, titrated drug dose 10000 nM
[21] = replicate R3, titrated drug dose 3 nM
[22] = replicate R3, titrated drug dose 10 nM
[23] = replicate R3, titrated drug dose 30 nM
[24] = replicate R3, titrated drug dose 100 nM
[25] = replicate R3, titrated drug dose 300 nM
[26] = replicate R3, titrated drug dose 1000 nM
[27] = replicate R3, titrated drug dose 3000 nM
[28] = replicate R3, titrated drug dose 10000 nM

Method: Cells were seeded at 5000 cells/well into 96-well flat bottom plates (Eppendorf) and allowed to attach overnight. […] Cells were incubated for 72 h at 37 °C and 5% CO2. Cell confluence readouts at 72 h were either normalized to their initial confluence using the Incucyte software (AsPC-1) or used without prior normalization (all others). […] Each experiment was performed in triplicates, the data was plotted as mean ± standard deviation (s.d.).

With `Nc1nn2cc(F)cnc2c1C(=O)Nc1cncc(F)c1N1CCC(C(=O)N2CCN(C3COC3)CC2)CC1` [Gartisertib] the Curve slope [1] was 1.84 and 2.11 and 1.85, the Curve bottom [1] was 0.97 and 0.99 and 1.02 and the Curve top [1] was 0.32 and 0.29 and 0.28. For the same compound, the Curve slope [2] was 1.70 and 3.25 and 2.63, the Curve bottom [2] was 0.97 and 0.89 and 0.93 and the Curve top [2] was 0.47 and 0.39. For the same compound, the Curve slope [3] was 1.86 and 2.66 and 1.99, the Curve bottom [3] was 1.01 and 0.93 and 0.97 and the Curve top [3] was 0.45 and 0.36. For the same compound, the Curve bottom [4] was 0.93 and 0.90 and 0.88, the Curve top [4] was 0.47 and 0.36 and the Response (GEM 0 nM, ATRi 3 nM) was 2.96 and 3.43 and 3.57. The Response (GEM 0 nM, ATRi 10 nM) was 3.28 and 3.77 and 3.92, the Response (GEM 0 nM, ATRi 30 nM) was 3.05 and 3.68 and the Response (GEM 1 nM + ATRi 3 nM) was 3.14 and 3.82 and 3.86. For the same compound, the Response (GEM 1 nM + ATRi 10 nM) was 3.23 and 3.93 and 3.90, the Response (GEM 1 nM + ATRi 30 nM) was 2.84 and 3.74 and the Response (GEM 3 nM + ATRi 3 nM) was 3.14 and 3.83 and 3.74. For the same compound, the Response (GEM 3 nM + ATRi 10 nM) was 3.01 and 3.70 and 3.66, the Response (GEM 3 nM + ATRi 30 nM) was 3.03 and 3.39 and the Response (GEM 10 nM + ATRi 3 nM) was 2.77 and 3.58 and 3.45. For the same compound, the Response (GEM 10 nM + ATRi 10 nM) was 2.54 and 2.78 and 2.71, the Response (GEM 10 nM + ATRi 30 nM) was 1.88 and 1.90 and 1.98 and the Response (GEM 30 nM + ATRi 3 nM) was 2.10 and 2.28 and 2.14. For the same compound, the Response (GEM 30 nM + ATRi 10 nM) was 1.63 and 1.61 and 1.64, the Response (GEM 30 nM + ATRi 30 nM) was 1.75 and 1.65 and 1.57 and the Response (GEM 100 nM + ATRi 3 nM) was 1.68 and 1.66 and 1.64. For the same compound, the Response (GEM 100 nM + ATRi 10 nM) was 1.57 and 1.53 and 1.56, the Response (GEM 100 nM + ATRi 30 nM) was 1.53 and 1.59 and 1.47 and the Response (GEM 300 nM + ATRi 3 nM) was 1.57 and 1.60 and 1.54. The Response (GEM 300 nM + ATRi 10 nM) was 1.52 and 1.50, the Response (GEM 300 nM + ATRi 30 nM) was 1.48 and 1.44 and 1.43 and the Response (GEM 1000 nM + ATRi 3 nM) was 1.57 and 1.62. The Response (GEM 1000 nM + ATRi 10 nM) was 1.40 and 1.55 and 1.43, the Response (GEM 1000 nM + ATRi 30 nM) was 1.36 and 1.45 and 1.40 and the Response (GEM 3000 nM + ATRi 3 nM) was 1.36 and 1.58 and 1.49. The Response (GEM 3000 nM + ATRi 10 nM) was 1.38 and 1.44 and 1.37, the Response (GEM 3000 nM + ATRi 30 nM) was 1.32 and 1.42 and 1.36 and the “AsPC-1 viability (ratio)” value [5] was 0.9 ratio. The “AsPC-1 viability mean (ratio)” value [5] was 0.59 ratio, the “Raw data (confluence at 72 h/confluence at 0 h)” value (“Raw data” below) [5] was 2.89 and the “AsPC-1 viability (ratio)” value [6] was 1.01 ratio. For the same compound, the “AsPC-1 viability mean (ratio)” value [6] was 0.99 ratio, the “Raw data” value [6] was 3.24 and the “AsPC-1 viability (ratio)” value [7] was 0.95 ratio. The “AsPC-1 viability mean (ratio)” value [7] was 0.48 ratio, the “Raw data” value [7] was 3.04 and the “AsPC-1 viability (ratio)” value [8] was 0.63 ratio. The “AsPC-1 viability mean (ratio)” value [8] was 0.45 ratio, the “Raw data” value [8] was 2.03 and the “AsPC-1 viability (ratio)” value [9] was 0.44 ratio. For the same compound, the “AsPC-1 viability mean (ratio)” value [9] was 0.4 ratio, the “Raw data” value [9] was 1.4 and the “AsPC-1 viability (ratio)” value [10] was 0.37 ratio. For the same compound, the “AsPC-1 viability mean (ratio)” value [10] was 0.54 ratio, the “Raw data” value [10] was 1.19 and the “AsPC-1 viability (ratio)” value [11] was 0.33 ratio. For the same compound, the “AsPC-1 viability mean (ratio)” value [11] was 0.49 ratio, the “Raw data” value [11] was 1.04 and the “AsPC-1 viability (ratio)” value [12] was 0.27 ratio. The “AsPC-1 viability mean (ratio)” value [12] was 0.45 ratio, the “Raw data” value [12] was 0.87 and the “AsPC-1 viability (ratio)” value [13] was 1.01 ratio. The “AsPC-1 viability mean (ratio)” value [13] was 0.6 ratio, the “Raw data” value [13] was 4.15 and the “AsPC-1 viability (ratio)” value [14] was 1 ratio. For the same compound, the “AsPC-1 viability mean (ratio)” value [14] was 1.08 ratio, the “Raw data” value [14] was 4.13 and the “AsPC-1 viability (ratio)” value [15] was 0.94 ratio. The “AsPC-1 viability mean (ratio)” value [15] was 0.49 ratio, the “Raw data” value [15] was 3.88 and the “AsPC-1 viability (ratio)” value [16] was 0.73 ratio. For the same compound, the “AsPC-1 viability mean (ratio)” value [16] was 0.44 ratio, the “Raw data” value [16] was 3.03 and the “AsPC-1 viability (ratio)” value [17] was 0.38 ratio. For the same compound, the “AsPC-1 viability mean (ratio)” value [17] was 0.4 ratio, the “Raw data” value [17] was 1.58 and the “AsPC-1 viability (ratio)” value [18] was 0.31 ratio. For the same compound, the “AsPC-1 viability mean (ratio)” value [18] was 0.53 ratio, the “Raw data” value [18] was 1.27 and the “AsPC-1 viability (ratio)” value [19] was 0.28 ratio. The “AsPC-1 viability mean (ratio)” value [19] was 0.92 ratio, the “Raw data” value [19] was 1.17 and the “AsPC-1 viability (ratio)” value [20] was 0.29 ratio. For the same compound, the “AsPC-1 viability mean (ratio)” value [20] was 0.47 ratio, the “Raw data” value [20] was 1.19 and the “AsPC-1 viability (ratio)” value [21] was 1.02 ratio. The “AsPC-1 viability mean (ratio)” value [21] was 0.58 ratio, the “Raw data” value [21] was 4.1 and the “AsPC-1 viability (ratio)” value [22] was 0.97 ratio. The “AsPC-1 viability mean (ratio)” value [22] was 0.53 ratio, the “Raw data” value [22] was 3.9 and the “AsPC-1 viability (ratio)” value [23] was 0.94 ratio. For the same compound, the “AsPC-1 viability mean (ratio)” value [23] was 0.35 ratio, the “Raw data” value [23] was 3.77 and the “AsPC-1 viability (ratio)” value [24] was 0.8 ratio. For the same compound, the “AsPC-1 viability mean (ratio)” value [24] was 0.35 ratio, the “Raw data” value [24] was 3.2 and the “AsPC-1 viability (ratio)” value [25] was 0.41 ratio. For the same compound, the “AsPC-1 viability mean (ratio)” value [25] was 0.34 ratio, the “Raw data” value [25] was 1.63 and the “AsPC-1 viability (ratio)” value [26] was 0.33 ratio. The “AsPC-1 viability mean (ratio)” value [26] was 0.47 ratio, the “Raw data” value [26] was 1.34 and the “AsPC-1 viability (ratio)” value [27] was 0.29 ratio. For the same compound, the “AsPC-1 viability mean (ratio)” value [27] was 0.35 ratio, the “Raw data” value [27] was 1.18 and the “AsPC-1 viability (ratio)” value [28] was 0.25 ratio. The “AsPC-1 viability mean (ratio)” value [28] was 0.34 ratio, the “Raw data” value [28] was 1 and the EC50 (ASPC1, 72 h, AsPC1, Experiment ATRi (ATR inhibitor alone), single replicates R1-R3) was 107 nM. The EC50 (ASPC1, 72 h, read-out: EC50 (cell growth), ATR inhibitor as single agent) was 128 nM, the EC50 (ASPC1, 72 h, read-out: EC50 mean [nM], AsPC1, Experiment ATRi (ATR inhibitor alone), mean of replicates) was 128 nM and the EC50 (ASPC1, 72 h, read-out: pEC50, AsPC1 (converted), Experiment ATRi (ATR inhibitor alone), single replicates R1-R3) was 107 nM. For the same compound, the EC50 (ASPC1, read-out: EC50 mean [nM], AsPC1, Experiment ATRi (ATR inhibitor alone), mean of replicates) was 128 nM, the Ratio (GEM 0 nM, ATRi 3 nM) was 0.90 and 0.92 and 1.01 and 0.83 and 1.02 and 0.89 and the Ratio (GEM 0 nM, ATRi 10 nM) was 1.01 and 1.02 and 1.00 and 0.91 and 0.97 and 0.98. The Ratio (GEM 0 nM, ATRi 30 nM) was 0.95 and 0.94 and 0.89, the Ratio (GEM 0 nM, ATRi 100 nM) was 0.63 and 0.73 and 0.80 and the Ratio (GEM 0 nM, ATRi 300 nM) was 0.44 and 0.38 and 0.41. The Ratio (GEM 0 nM, ATRi 1000 nM) was 0.37 and 0.31 and 0.33, the Ratio (GEM 0 nM, ATRi 3000 nM) was 0.33 and 0.28 and 0.29 and the Ratio (GEM 0 nM, ATRi 10000 nM) was 0.27 and 0.29 and 0.25. For the same compound, the Ratio (GEM 1 nM + ATRi 3 nM) was 0.98 and 0.92 and 0.96, the Ratio (GEM 1 nM + ATRi 10 nM) was 1.01 and 0.95 and 0.97 and the Ratio (GEM 1 nM + ATRi 30 nM) was 0.89 and 0.91 and 0.87. The Ratio (GEM 3 nM + ATRi 3 nM) was 0.98 and 0.93, the Ratio (GEM 3 nM + ATRi 10 nM) was 0.94 and 0.89 and 0.91 and the Ratio (GEM 3 nM + ATRi 30 nM) was 0.95 and 0.82 and 0.85. For the same compound, the Ratio (GEM 10 nM + ATRi 3 nM) was 0.87 and 0.86, the Ratio (GEM 10 nM + ATRi 10 nM) was 0.79 and 0.67 and 0.68 and the Ratio (GEM 10 nM + ATRi 30 nM) was 0.59 and 0.46 and 0.49. For the same compound, the Ratio (GEM 30 nM + ATRi 3 nM) was 0.66 and 0.55 and 0.53, the Ratio (GEM 30 nM + ATRi 10 nM) was 0.51 and 0.39 and 0.41 and the Ratio (GEM 30 nM + ATRi 30 nM) was 0.55 and 0.40 and 0.39. For the same compound, the Ratio (GEM 100 nM + ATRi 3 nM) was 0.52 and 0.40 and 0.41, the Ratio (GEM 100 nM + ATRi 10 nM) was 0.49 and 0.37 and 0.39 and the Ratio (GEM 100 nM + ATRi 30 nM) was 0.48 and 0.38 and 0.37. For the same compound, the Ratio (GEM 300 nM + ATRi 3 nM) was 0.49 and 0.39 and 0.38, the Ratio (GEM 300 nM + ATRi 10 nM) was 0.47 and 0.37 and the Ratio (GEM 300 nM + ATRi 30 nM) was 0.46 and 0.35 and 0.36. The Ratio (GEM 1000 nM + ATRi 3 nM) was 0.49 and 0.39, the Ratio (GEM 1000 nM + ATRi 10 nM) was 0.44 and 0.38 and 0.36 and the Ratio (GEM 1000 nM + ATRi 30 nM) was 0.43 and 0.35. The Ratio (GEM 3000 nM + ATRi 3 nM) was 0.43 and 0.38 and 0.37, the Ratio (GEM 3000 nM + ATRi 10 nM) was 0.43 and 0.35 and 0.34 and the Ratio (GEM 3000 nM + ATRi 30 nM) was 0.41 and 0.34.

Source: publication PMC11876601 (Molecular Systems Biology, 2025)
